# Assay results taken from patent publication US10308640B2, “1,3-dihydroimidazole-2-thione derivatives for use in the treatment of pulmonary arterial hypertension and lung injury” (BIAL—PORTELA & CA S.A., priority 2012, dated 2019).
# Assays:
# [1] = test system: Monocrotaline (MCT) lung injury model of Pulmonary Arterial Hypertension; assay: Survival in the Monocrotaline (MCT) lung injury model of Pulmonary Arterial Hypertension (Kaplan-Meier curves, 28 days); format: in vivo, rat; conditions: MCT rats; for survival (survival curve): compared to MCT group
# Excerpt: (§1) One of the most-used animal models is the Monocrotaline (MCT) lung injury model of Pulmonary Arterial Hypertension. Administration of MCT, that is metabolized in the liver to the reactive metabolite dehydromonocrotaline, results in a syndrome characterized by acute lung injury, interstitial pulmonary fibrosis, necrotizing pulmonary arteritis, pulmonary hypertension, right ventricular (RV) hypertrophy, myocarditis and hepatic venoocclusive disease.
# (§2) The protocol to use is a standard one (Curr. Protoc. Pharmacol. 46:5.56.1-5.56.11(2009) John Wiley & Sons Inc). Rats, of 6-7 weeks old (150-200 g) are administered MCT 60 mg/kg subcutaneously, and the pathology usually develops in the course of initial 3 to 4 weeks with the animals dying within the next 2 weeks (5th-6th week). A decrease of 50% in food and water consumption is thought to be indicative of pathological status severe enough for testing.
# Two studies were conducted separately and a combination analysis performed on the two studies. Each study consisted in the scheme represented in FIG. 1.
# The experimental design of both studies was the same, with animals randomized in seven groups, five groups of 10 animals each (MCT, MCT+Bos300, MCT+Bos100, MCT+Compound B, MCT+Compound B+Bos100) and 2 groups of 6 animals each (SHAM and SHAM+Compound B).
# The experimental details are described in more detail below; briefly, compounds were given to rats mixed with food starting, Compound B (30 mg/kg/day) for groups MCT+Compound B and SHAM+Compound B, bosentan (300 mg/kg/day) for group MCT+Bos300, bosentan (100 mg/kg/day) for group MCT+Bos100, Compound B+bosentan (30+100 mg/kg/day) for group MCT+Compound B+Bos100, and no compound for groups MCT and SHAM. Animals from groups MCT were administered MCT and animals from groups SHAM were administered vehicle. Twenty eight days later, surviving animals were sacrificed, tissues collected and weighed. During the entire experimental period food, water consumption and animal weight were monitored. The ratios organ weight to body weight (BW) were calculated to evaluate organ hypertrophy. The index of RV/LV+S was calculated as an index of RV hypertrophy. […]
# Animals were given powdered food for an adaptation period of 3-5 days before treatment start. […] Food, water consumption and animal weight were monitored over the entire duration of the experiment.
# Animals were given powdered food for an adaptation period of 3-5 days before treatment start. […] Animal weight, food and water consumption were evaluated twice a week and animals were regularly observed for any disease signs. Mortality was registered and on day 28 surviving animals were sacrificed, selected organs weighed and femurs removed and measured. […]
# [2] = test system: Monocrotaline (MCT) lung injury model of Pulmonary Arterial Hypertension; assay: Cardiac remodelling (organ weight ratios, Fulton index) in the MCT lung injury model of PAH; format: in vivo, rat; conditions: compared to MCT group; for right ventricular hypertrophy: 28 days
# Excerpt: as §1, §2
# The experimental details are described in more detail below; briefly, compounds were given to rats mixed with food starting, Compound B (30 mg/kg/day) for groups MCT+Compound B and SHAM+Compound B, bosentan (300 mg/kg/day) for group MCT+Bos300, bosentan (100 mg/kg/day) for group MCT+Bos100, Compound B+bosentan (30+100 mg/kg/day) for group MCT+Compound B+Bos100, and no compound for groups MCT and SHAM. Animals from groups MCT were administered MCT and animals from groups SHAM were administered vehicle. Twenty eight days later, surviving animals were sacrificed, tissues collected and weighed. During the entire experimental period food, water consumption and animal weight were monitored. The ratios organ weight to body weight (BW) were calculated to evaluate organ hypertrophy. The index of RV/LV+S was calculated as an index of RV hypertrophy. In each study an n=10 animals was used for each MCT treatment group, and an n=6 was used for the groups not given MCT. The animals from MCT+Bos300 group from Study 1 were not considered for the combined survival analysis since these unexpectedly presented a higher mortality effect as compared to the MCT group. The surviving animals from this group were nevertheless considered for the cardiac remodelling analysis.
# All data is expressed as mean±sem (Standard Error of the Mean) unless otherwise indicated. Differences between treatment groups were analysed by one-way ANOVA and post-hoc Newman-Keuls multiple comparison test. P<0.05 was considered statistically significant.
# On day 28 surviving animals were sacrificed and the following tissues/organs collected and weighed: liver, kidney, lung, heart and spleen. Femurs were removed and measured. Heart was dissected into right ventricle, left ventricle+septum and these were also weighed. The ratio organ to body weight (BW) was calculated as well as the ratio organ weight to femur length. The index of RV/LV+S is an index of RV hypertrophy. Catecholamines were evaluated only on right ventricle and left ventricle+septum.
# Whole spleen, whole liver, left kidney and lungs were removed, cleaned and weighed. Heart was removed, cleaned from atria and vascular tissue and weighed. Right ventricle was then dissected from the rest of the heart (left ventricle +septum) and both were weighed and put in tubes containing 0.2 M PCA. Femurs were removed, cleaned and length measured with a calliper.
# The ratios organ weight to body weight and organ weight to femur length were calculated as well as the ratio right ventricular weight to left ventricular+septum weight.
# Organs weighed were: liver, kidney, lung, heart and spleen. Heart was dissected into right ventricle, left ventricle+septum and these were also weighed. The ratio organ to body weight (BW) was calculated as well as the ratio organ weight to femur length. The index of RV/LV+S is an index of RV hypertrophy.
# Whole spleen, whole liver, both kidneys and lungs were removed, cleaned and weighed. Heart was removed, cleaned from atria and vascular tissue and weighed. […]
# [3] = Compound B alone 30 mg/kg/day, 28 days after MCT
# [4] = Bosentan 300 mg/kg/day, 28 days after MCT
SMILES,survival (survival curve) ([1]; Compound B 30 mg/kg/day in food),survival rates compared to the use of bosentan alone ([1]; Compound B alone 30 mg/kg/day),right ventricular hypertrophy ([2]; Compound B 30 mg/kg/day),"Fulton Index (RV/LV+S) [2, 3]","heart weight over bodyweight (BW) [2, 3]","right ventricle (RV) weight over bodyweight (BW) [2, 3]",survival (survival curve) ([1]; bosentan 100 mg/kg/day in food),survival (survival curve) ([1]; bosentan 300 mg/kg/day in food),"Fulton Index (RV/LV+S) [2, 4]","right ventricle (RV) weight over bodyweight (BW) [2, 4]",right ventricular hypertrophy ([2]; bosentan 100 mg/kg/day (MCT+Bos100)),right ventricular hypertrophy ([2]; bosentan 300 mg/kg/day (MCT+Bos300))
"Fc1cc(F)c2c(c1)C[C@@H](n1c(CCNCc3ccccc3)c[nH]c1=S)CO2 [Compound B, (R)-5-(2-(benzylamino)ethyl)-1-(6,8-difluorochroman-3-yl)-1H-imidazole-2(3H)-thione]",slight increase in survival,greater survival rates,significant decreased,significantly decreased,significantly decreased,significantly decreased,–,–,–,–,–,–
"COc1ccccc1Oc1c(NS(=O)(=O)c2ccc(C(C)(C)C)cc2)nc(-c2ncccn2)nc1OCCO [bosentan, Bosentan]",–,–,–,–,–,–,No clear benefit,No clear benefit,significantly decreased,significantly decreased,significant decreased,marked and statistically significant decrease
